Reference: patent US4559362A, “Immunopotentiator” (Zaidan Hojin Biseibutsu Kagaku Kenkyu Kai, priority 1982, dated 1985)

Experiments:
IMC carcinoma = assay: Antitumor effect on IMC carcinoma transplanted subcutaneously into CDF1 mice; type: in vivo; details: for Weight of tumor ± S.D.: 10 times on alternative days, day 30, in mg (unit assumed)
Method: (§1) The pharmacological effects of spermidine will be illustrated by reference to the following experimental examples, in which spermidine was administered as its phosphate dissolved in physiological saline.
(a) The antitumor effect of spermidine was investigated on IMC carcinoma successively transplanted into CDF1 mice and on S180 sarcoma transplanted into ICR mice. 1×10^6 tumor cells of each of the above type were transplanted subcutaneously into such mice (Day 0). From Day 1 onwards, spermidine was intraperitoneally injected a total of 10 times (once daily on alternative days). Thirty days after transplantation of tumor cells, the tumor was removed and weighed to evaluate the effect of spermidine.

[1] = tested on: alternative pathway of the complement system; assay: Activation of the alternative pathway of the complement system (hemolysis of rabbit blood cells in normal human serum); type: biochemical; details: for % consumption of complement component C3: 37° C., 60 minutes
Method: The effect of spermidine on the activation of the alternative pathway of the complement system was investigated in accordance with the method of Platts-Mills and Ishizaka (Platt-Mills, T. A. E. and Ishizaka, K.: Activation of the alternative pathway of human complement by rabbit cells. J. Immune. 113, 348-358, 1974).
Spermidine was added to normal human serum in EGTA buffer solution, and the mixture was heated at 37° C. for 60 minutes. Rabbit blood cells were then added to the mixture. The degree of hemolysis was measured with a spectrophotometer at 412 nm to evaluate the effect of spermidine.

mouse leukemia L-1210 = assay: Survival of CDF1 mice transplanted with mouse leukemia L-1210; type: in vivo; details: for Increase of life span: control = 100, mice surviving 60 days excluded
Method: as §1
(b) 1×10^2 mouse leukemia L-1210 cells were transplanted into CDF1 mice by subcutaneous injection (Day 0). From Day 1 onwards, 0.5 to 5 mg/kg of spermidine was administered in total of 10 times, once daily on alternative days, to investigate on the number of days the mice survived.

[2] = tested on: delayed-type hypersensitivity (DTH) to sheep erythrocytes; assay: Effect on delayed-type hypersensitivity (DTH) to sheep erythrocytes, sole swelling; type: in vivo, CDF1 mice
Method: as §1
In accordance with the method of Lagrange et al. (Lagrange, P. H., Mackaness, G. B., and Miller, T. E.: Influence of dose and route of antigen injection on the immunological induction of T cells. J. Exp. Med. 139, 528-542, 1974), the effect of spermidine on cellular immunity was investigated using as its index the degree of delayed-type hypersensitivity (DTH) to sheep erythrocytes as the antigen. CDF1 mice (8 weeks old, female) were intravenously injected with 10^5 or 10^8 sheep erythrocytes for immunization, and at the same time, were intraperitoneally injected with spermidine. Four days later, the soles of the mice were subcutaneously injected with 10^8 sheep erythrocytes to induce the DTH reaction. Twenty four hours later, swellings on the soles were measured with a caliper to evaluate the effect of spermidine.

[3] = 5 mg/kg, 10 times on alternative days

NCCCCNCCCN [Spermidine, spermidine]
% inhibition (weight of tumor) (IMC carcinoma; 0.05 mg/kg/day i.p.): 26%
Weight of tumor ± S.D. (IMC carcinoma; 0.05 mg/kg/day i.p.): 5112 ± 2263
% inhibition (weight of tumor) (IMC carcinoma; 0.5 mg/kg/day i.p.): 58%
Weight of tumor ± S.D. (IMC carcinoma; 0.5 mg/kg/day i.p.): 2893 ± 964
% inhibition (weight of tumor) (IMC carcinoma; 5 mg/kg/day i.p.): 40%
Weight of tumor ± S.D. (IMC carcinoma; 5 mg/kg/day i.p.): 4125 ± 1852
% inhibition (weight of tumor) (IMC carcinoma; 50 mg/kg/day i.p.): 44%
Weight of tumor ± S.D. (IMC carcinoma; 50 mg/kg/day i.p.): 3886 ± 1351
% consumption of complement component C3 ([1]; 2 mg/ml): 0%
% consumption of complement component C3 ([1]; 4 mg/ml): 66.1%
% consumption of complement component C3 ([1]; 8 mg/ml): 83.6%
activation of the alternative pathway of complement ([1]; 4 to 8 mg/ml): clearly activates the alternative pathway of complement
Survival rate on Day 60 (mouse leukemia L-1210; 0.5 mg/kg): 1/10
Survival period (mouse leukemia L-1210; 0.5 mg/kg, 10 times on alternative days): 16.0 ± 3.1 days
Increase of life span (mouse leukemia L-1210; 0.5 mg/kg): 109%
Survival rate on Day 60 (mouse leukemia L-1210; 5 mg/kg): 3/10
Survival period (mouse leukemia L-1210; [3]): 15.2 ± 2.2 days
complete remission (mouse leukemia L-1210; [3]): 3 out of 10
Increase of life span (mouse leukemia L-1210; 5 mg/kg): 104%
effect on normal cellular immunity ([2]; 5 to 0.005 mg/kg): enhances normal cellular immunity
Swelling on the sole ([2]; 10^5 sheep erythrocytes, 0.01 μg/mouse (0.0005) i.p.): 5.8 ± 0.4 × 0.1 mm
% increase (swelling on the sole) ([2]; 10^5 sheep erythrocytes, 0.01 μg/mouse (0.0005) i.p., untreated 10^5 group = 100): 91%
Swelling on the sole ([2]; 10^5 sheep erythrocytes, 0.1 μg/mouse (0.005) i.p.): 9.4 ± 0.7 × 0.1 mm
% increase (swelling on the sole) ([2]; 10^5 sheep erythrocytes, 0.1 μg/mouse (0.005) i.p., untreated 10^5 group = 100): 147%
Swelling on the sole ([2]; 10^5 sheep erythrocytes, 1 μg/mouse (0.05) i.p.): 8.5 ± 0.7 × 0.1 mm
% increase (swelling on the sole) ([2]; 10^5 sheep erythrocytes, 1 μg/mouse (0.05) i.p., untreated 10^5 group = 100): 133%
Swelling on the sole ([2]; 10^5 sheep erythrocytes, 10 μg/mouse (0.5) i.p.): 8.9 ± 0.7 × 0.1 mm
% increase (swelling on the sole) ([2]; 10^5 sheep erythrocytes, 10 μg/mouse (0.5) i.p., untreated 10^5 group = 100): 139%
Swelling on the sole ([2]; 10^5 sheep erythrocytes, 100 μg/mouse (5) i.p.): 8.1 ± 1.1 × 0.1 mm
% increase (swelling on the sole) ([2]; 10^5 sheep erythrocytes, 100 μg/mouse (5) i.p., untreated 10^5 group = 100): 126%
Swelling on the sole ([2]; 10^5 sheep erythrocytes, 1000 μg/mouse (50) i.p.): 7.1 ± 0.3 × 0.1 mm
% increase (swelling on the sole) ([2]; 10^5 sheep erythrocytes, 1000 μg/mouse (50) i.p., untreated 10^5 group = 100): 111%
effect of enhancing cellular immunity ([2]; 10^5 sheep erythrocytes, 0.01 or 1000 μg/mouse): no enhancing effect
effect of enhancing cellular immunity ([2]; 10^5 sheep erythrocytes, 0.1 to 100 μg/mouse): significant effect of enhancing cellular immunity
Swelling on the sole ([2]; 10^8 sheep erythrocytes, 0.01 μg/mouse (0.0005) i.p.): 4.5 ± 0.2 × 0.1 mm
% increase (swelling on the sole) ([2]; 10^8 sheep erythrocytes, 0.01 μg/mouse (0.0005) i.p., untreated 10^5 group = 100, untreated 10^8 group = 48): 70%
Swelling on the sole ([2]; 10^8 sheep erythrocytes, 0.1 μg/mouse (0.005) i.p.): 5.3 ± 0.3 × 0.1 mm
% increase (swelling on the sole) ([2]; 10^8 sheep erythrocytes, 0.1 μg/mouse (0.005) i.p., untreated 10^5 group = 100, untreated 10^8 group = 48): 83%
Swelling on the sole ([2]; 10^8 sheep erythrocytes, 1 μg/mouse (0.05) i.p.): 6.3 ± 0.3 × 0.1 mm
% increase (swelling on the sole) ([2]; 10^8 sheep erythrocytes, 1 μg/mouse (0.05) i.p., untreated 10^5 group = 100, untreated 10^8 group = 48): 98%
Swelling on the sole ([2]; 10^8 sheep erythrocytes, 10 μg/mouse (0.5) i.p.): 6.4 ± 0.06 × 0.1 mm
% increase (swelling on the sole) ([2]; 10^8 sheep erythrocytes, 10 μg/mouse (0.5) i.p., untreated 10^5 group = 100, untreated 10^8 group = 48): 100%
Swelling on the sole ([2]; 10^8 sheep erythrocytes, 100 μg/mouse (5.0) i.p.): 6.4 ± 0.4 × 0.1 mm
% increase (swelling on the sole) ([2]; 10^8 sheep erythrocytes, 100 μg/mouse (5.0) i.p., untreated 10^5 group = 100, untreated 10^8 group = 48): 100%
Swelling on the sole ([2]; 10^8 sheep erythrocytes, 1000 μg/mouse (50) i.p.): 7.4 ± 0.5 × 0.1 mm
% increase (swelling on the sole) ([2]; 10^8 sheep erythrocytes, 1000 μg/mouse (50) i.p., untreated 10^5 group = 100, untreated 10^8 group = 48): 116%
effect of strengthening cellular immunity ([2]; 10^8 sheep erythrocytes, 0.1 to 1000 μg/mouse, vs 10^8 control group): marked effect of strengthening cellular immunity
DTH reaction compared with group immunized with 10^5 erythrocytes ([2]; 10^8 sheep erythrocytes, 10 to 1000 μg/mouse): comparable
effect on suppression of cellular immunity by suppressor cells ([2]; 50 to 0.5 mg/kg): inhibit the suppression of cellular immunity by suppressor cells
